# From patent US9205136B2, “Human aminoacyl-tRNA synthetase polypeptides useful for the regulation of angiogenesis” (THE SCRIPPS RESEARCH INSTITUTE, priority 2000, dated 2015)
# B1: NAP-2: human recombinant NAP-2 (Biosource International), α-chemokine (protein)
# chain: AELRCMCIKTTSGIHPKNIQSLEVIGKGTHCNQVEVIATLKDGRKICLDPDAPRIKKIVQKKLAGDESAD
# B2: extended carboxyl-terminal domain: recombinant residues 344-528 of human full-length TyrRS (protein, UniProt P54577 344-528, looked up, fragment)
# chain: PSKQKPMAKGPAKNSEPEEVIPSRLDIRVGKIITVEKHPDADSLYVEKIDVGEAEPRTVVSGLVQFVPKEELQDRLVVVLCNLKPQKMRGVESQGMLLCASIEGINRQVEPLDPPAGSAPGEHVFVKGYEKGQPDEELKPKKKVFEKLQADFKISEECIAQWKQTNFMTKLGSISCKSLKGGNIS
# B3: truncated mini TyrRS: recombinant truncated mini TyrRS comprising residues 1-344 of human full-length TyrRS (protein, UniProt P54577 1-344, looked up, fragment)
# chain: MGDAPSPEEKLHLITRNLQEVLGEEKLKEILKERELKIYWGTATTGKPHVAYFVPMSKIADFLKAGCEVTILFADLHAYLDNMKAPWELLELRVSYYENVIKAMLESIGVPLEKLKFIKGTDYQLSKEYTLDVYRLSSVVTQHDSKKAGAEVVKQVEHPLLSGLLYPGLQALDEEYLKVDAQFGGIDQRKIFTFAEKYLPALGYSKRVHLMNPMVPGLTGSKMSSSEEESKIDLLDRKEDVKKKLKKAFCEPGNVENNGVLSFIKHVLFPLKSEFVILRDEKWGGNKTYTAYVDLEKDFAAEVVHPGDLKNSVEVALNKLLDPIREKFNTPALKKLASAAYPDP
# Experiments:
# PMNs [1] = test: 125I-human mini TyrRS binding and competition assay on PMNs; conditions: 10 nM 125I-mini TyrRS, 200-fold molar excess of unlabeled ligand, on ice 2 hours
# Experimental: The interaction of human mini TyrRS and PMNs was examined in binding studies using radioiodinated TyrRS molecules (Moser et al., 1993, J. Biol. Chem. 268:7125-28). Custom radioiodination of mini TyrRS with was performed by Research & Diagnostic Antibody (Richmond, Calif.). In the binding assays, 2×10^6 PMNs were first suspended in 120 μl of RPMI-1640 medium containing 20 mM Hepes (pH 7.4) and 10 mg/ml bovine serum albumin. […] Following incubation, cells were separated from unbound radioactivity by centrifugation at approximately 8000×g for 2 minutes through 500 μL, of a 10% sucrose/phosphate-buffered saline (PBS) cushion. The supernatant was aspirated, and the cell sediment was resuspended using EcoLite (ICN Biomedicals, Irvine, Calif.) and analyzed in a scintillation counter.
# Following incubation, cells were separated from unbound radioactivity as described herein.
# MPs = test: MP chemotaxis assay (ChemoTX microchemotaxis chamber); type: cell-based, human; conditions: for MP migration induced by synthetic peptide: assay as in Example 2; for MP chemotaxis (MP migration): sample proteins 1 nM, 3 hours
# Experimental: (§1) Cells for the various cytokine assays described were prepared from acid citrate dextrose-treated blood of normal healthy volunteers. Human PMNs were isolated from the blood by centrifugation (700×g) over Histopaque 1077 and 1119 (Sigma). […] This procedure was repeated twice. Human MPs were isolated by centrifugation on Histopaque 1077 (Sigma). The mononuclear fraction was obtained, washed twice in Hanks' balanced salt solution, resuspended in RPMI-1640 medium (Sigma) containing 10% heat-inactivated fetal bovine serum (Sigma), plated in tissue culture flasks, and incubated in a 6% CO2 incubator at 37° C. for 1-2 hours (Kumagai et al., 1979, J. Immunol. Methods 29:17-25). Nonadherent cells were removed by washing the flasks three times with Hanks' balanced salt solution, and adherent cells were harvested by incubation with calcium-magnesium free phosphate-buffered saline containing 2 mM EDTA for 15 minutes at 4° C., followed by extensive washing.
# MP chemotaxis assays were performed in a ChemoTX microchemotaxis chamber (Neuro Probe, Gaithersburg, Md.) containing polycarbonate filters (5 μm pores) with polyvinylpyrrolidone (PVP). MPs were suspended in RPMI-1640 medium containing 1% heat-inactivated fetal bovine serum, and 10^4 cells were added to the upper chamber. Sample proteins (1 nM) were added to the lower compartment of chemotaxis chambers, and the chambers were incubated for 3 hours. After incubation, nonmigrating cells were removed, membranes were fixed in methanol, and migrating cells were visualized with the HEMACOLOR™ stain set (EM Diagnostic Systems, Gibbstown, N.J.). Migrating cells were counted in high-power fields (HPFs). Each determination shown in FIG. 2 represents the average of nine HPF measurements.
# PMNs [2] = test: PMN chemotaxis assay (ChemoTX microchemotaxis chamber); type: cell-based, human; conditions: for PMN migration induced by synthetic peptide: assay as in Example 2; for PMN chemotaxis (PMN migration): sample proteins 1 nM, 45 min
# Experimental: as §1
# PMN chemotaxis assays were performed in a ChemoTX microchemotaxis chamber (described herein). Sample proteins (1 nM) were added to the lower compartment of chemotaxis chambers, and 10^4 PMNs were added to the upper compartment. Chambers were incubated for 45 min, and migrating cells were counted in HPFs. Each determination shown in FIG. 2 represents the average of nine HPF measurements.
molecule,measurement,setting,value
"Gro: human recombinant Gro (Biosource International), α-chemokine",inhibition of 125I-mini TyrRS binding to PMNs by unlabeled ligand,PMNs [1],did not significantly inhibit the binding
"R-V-G-F-I-Q-K (RVGFIQK; listed as Saccharomyces cerevisiae) [synthetic peptide derived from S. cerevisiae Arc1p, reference compound]",MP migration induced by synthetic peptide,MPs; synthetic heptapeptides,neither peptide induced PMN or MP migration
same,PMN migration induced by synthetic peptide,PMNs [2]; synthetic heptapeptides,neither peptide induced PMN or MP migration
"R-V-G-R-I-I-K (RVGRIIK; Caenorhabditis elegans) [synthetic peptide derived from C. elegans MetRS, reference compound]",MP migration induced by synthetic peptide,MPs; synthetic heptapeptides,neither peptide induced PMN or MP migration
same,PMN migration induced by synthetic peptide,PMNs [2]; synthetic heptapeptides,neither peptide induced PMN or MP migration
"R-V-G-K-I-I-T (RVGKIIT; listed as Homo sapiens) [TyrRS carboxyl-terminal domain peptide, synthetic peptide derived from the TyrRS carboxyl-terminal domain]",dose-dependence of peptide effect on MP migration,MPs; synthetic heptapeptides,dose-dependence similar to that of the mature EMAP II peptide
same,MP migration induced by synthetic peptide,MPs; synthetic heptapeptides,MP migration
same,dose-dependence of peptide effect on PMN migration,PMNs [2]; synthetic heptapeptides,dose-dependence similar to that of the mature EMAP II peptide
same,PMN migration induced by synthetic peptide,PMNs [2]; synthetic heptapeptides,induced PMN migration
B1,inhibition of 125I-mini TyrRS binding to PMNs by unlabeled ligand,PMNs [1],did not significantly inhibit the binding
B2,MP chemotaxis (MP migration),MPs,capable of can inducing both MP and PMN chemotaxis
same,PMN chemotaxis (PMN migration),PMNs [2],capable of can inducing both MP and PMN chemotaxis
B3,MP chemotaxis (MP migration),MPs,not for MPs
same,PMN chemotaxis (PMN migration),PMNs [2],capable of functioning as a chemoattractant for PMNs
